{
  "source": "paper PMC6934184",
  "about": "“Selective DNA-PKcs inhibition extends the therapeutic index of localized radiotherapy and chemotherapy” (The Journal of Clinical Investigation, 2019)",
  "biological_target": "T1, FGFR3 G697C (Homo sapiens, UniProt P22607, G697C)",
  "T1 construct": "purchased Thermo Fisher Scientific (Life Technologies) SelectScreen",
  "T1 sequence (P22607 23-806 G697C)": "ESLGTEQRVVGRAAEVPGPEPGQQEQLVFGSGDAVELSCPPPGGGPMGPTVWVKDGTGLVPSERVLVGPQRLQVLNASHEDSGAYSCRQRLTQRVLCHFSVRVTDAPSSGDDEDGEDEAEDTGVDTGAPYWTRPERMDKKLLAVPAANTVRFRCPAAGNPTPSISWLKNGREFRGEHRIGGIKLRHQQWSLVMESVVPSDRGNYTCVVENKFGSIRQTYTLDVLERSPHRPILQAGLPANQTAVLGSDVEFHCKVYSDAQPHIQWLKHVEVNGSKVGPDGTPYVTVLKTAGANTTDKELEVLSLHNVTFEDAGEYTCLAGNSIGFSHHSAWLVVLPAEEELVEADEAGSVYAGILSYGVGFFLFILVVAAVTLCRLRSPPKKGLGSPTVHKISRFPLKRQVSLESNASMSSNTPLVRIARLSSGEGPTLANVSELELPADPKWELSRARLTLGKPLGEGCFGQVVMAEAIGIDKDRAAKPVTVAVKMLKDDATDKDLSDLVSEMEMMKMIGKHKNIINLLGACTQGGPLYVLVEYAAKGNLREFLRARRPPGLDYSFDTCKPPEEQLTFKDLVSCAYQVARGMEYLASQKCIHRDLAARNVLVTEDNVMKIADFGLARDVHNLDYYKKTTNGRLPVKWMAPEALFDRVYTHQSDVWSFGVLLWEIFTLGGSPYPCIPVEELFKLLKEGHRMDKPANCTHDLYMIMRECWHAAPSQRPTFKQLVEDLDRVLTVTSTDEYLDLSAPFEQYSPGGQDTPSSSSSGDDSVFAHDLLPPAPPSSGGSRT",
  "test": "SelectScreen LanthaScreen",
  "type": "binding",
  "conditions": "read-out: % displacement",
  "in_short": "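SelectScreen broad panel; activity (Z'LYTE, Adapta) plus binding formats. ATP: Km app for CSF1R Z'LYTE; 10 for CAMK1 Adapta. Readout = % per kinase.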",
  "data": [
    {"molecule": "CN(C(=O)CN1CCOCC1)c1ccc2sc3c(-c4cccc5c(=O)cc(N6CC7CCC(C6)O7)oc45)cccc3c2c1", "note": "[NU5455]", "values": [
      {"measurement": "inhibition at 1 µM", "value": 3.1, "unit": "%"}
    ]}
  ]
}
